Patent publication EP4603105A1, “PHARMACEUTICAL COMPOSITION CONTAINING CYCLIC COMPOUND HAVING SELECTIVE KRAS INHIBITORY EFFECT AGAINST HRAS AND NRAS” (CHUGAI SEIYAKU KABUSHIKI KAISHA, priority 2022, dated 2024)
Where two headings read alike, the source gives them in different places. Where a SMILES comes first, the peptide text is derived from it. Bridges are numbered along the chain shown (N, C = ends). [ ]: non-standard residue; d: D form. The star is where a group is joined. hPhe(3-Cl-4-CF3) = N[C@@H](CCc1ccc(C(F)(F)F)c(Cl)c1)C(=O)O; NPrPhe(4-CF3) = CCCN[C@@H](Cc1ccc(C(F)(F)F)cc1)C(=O)O; NMeGly(cPent) = CN[C@H](C(=O)O)C1CCCC1; Pro(4,4-F2) = O=C(O)[C@@H]1CC(F)(F)CN1; NMeL = CN[C@@H](CC(C)C)C(=O)O; Morpholide = C1CN(*)CCO1; Ac5c = NC1(C(=O)O)CCCC1; Aze = O=C(O)[C@@H]1CCN1; Ac4c = NC1(C(=O)O)CCC1; Sar = CNCC(=O)O

Experiments:
[1] = system: human lung cancer strain NCI-H441; format: cell-based
Outline: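 Signal came from […] measured per well once the reagent was added. Beforehand, cells were cultured at 37°C and 5% carbon dioxide on a compound series serially diluted in dimethyl sulfoxide.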

[2] = biological target: GDP-bound NRAS wild-type protein (Homo sapiens, UniProt P01111); assay: Binding to NRAS by surface plasmon resonance (SPR), KD and KD ratio to KRAS
Outline: (§1)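 Each cycle, GDP-bound biotin-Avi RAS was captured (~100–300 RU), compound concentrations were injected low to high for 75 s each at 100 µL/min, then the chip was regenerated. Buffer: HBS pH 7.4, 10 mM MgCl2, 10 µM GDP, 1 mM DTT, 4% DMSO; 30°C. KD from a 1:1 binding model.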

HRAS wild-type protein = HRAS wild-type protein (Homo sapiens, UniProt P01112); assay: Binding to HRAS by surface plasmon resonance (SPR), KD and KD ratio to KRAS
Outline: as §1

[3] = ratio of KD for GDP-bound NRAS wild-type protein to KD for KRAS
[4] = ratio of KD for HRAS wild-type protein to KD for KRAS
[5] = ratio of the KD value with respect to GDP-bound NRAS wild-type protein to the KD value with respect to KRAS
[6] = ratio of the KD value with respect to HRAS wild-type protein to the KD value with respect to KRAS

GDP-bound NRAS wild-type protein, sequence (P01111 whole entry): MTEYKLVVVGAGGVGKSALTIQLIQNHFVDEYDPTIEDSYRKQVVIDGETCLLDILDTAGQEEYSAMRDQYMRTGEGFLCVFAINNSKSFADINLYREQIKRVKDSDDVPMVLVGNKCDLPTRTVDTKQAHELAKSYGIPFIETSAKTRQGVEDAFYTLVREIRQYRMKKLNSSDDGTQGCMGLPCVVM
HRAS wild-type protein, sequence (P01112 whole entry): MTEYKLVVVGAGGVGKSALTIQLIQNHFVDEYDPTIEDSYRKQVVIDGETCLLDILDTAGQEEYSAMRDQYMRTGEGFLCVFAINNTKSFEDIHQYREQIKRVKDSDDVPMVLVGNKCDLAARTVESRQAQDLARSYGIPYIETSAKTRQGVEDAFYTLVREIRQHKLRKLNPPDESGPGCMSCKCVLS

Row | Compound | IC50 [1] [nM] | IC50 ([1]; NCI-H441 cells, 4 days, CellTiter-Glo, read-out: NCl-H441 IC50) [nM] | NRAS /KRAS ([2]; ratio of KD value for GDP-bound NRAS wild-type protein to KD value for KRAS (SPR)) | HRAS /KRAS (HRAS wild-type protein; ratio of KD value for HRAS wild-type protein to KD value for KRAS (SPR)) | NRAS /KRAS [2, 3] | HRAS /KRAS (HRAS wild-type protein; [4]) | NRAS /KRAS [2, 5] | HRAS /KRAS (HRAS wild-type protein; [6])
1 | CCCN1C(=O)[C@@H]2CCN2C(=O)CN(C)C(=O)[C@H]([C@@H](C)CC)NC(=O)[C@H](CC(C)C)N(C)C(=O)C[C@@H](C(=O)N2CCOCC2)NC(=O)[C@H](C2CCCC2)N(C)C(=O)C2(CCC2)NC(=O)[C@@H]2CCCN2C(=O)[C@H](CCc2ccc(C(F)(F)F)c(Cl)c2)NC(=O)CN(C)C(=O)[C@@H]1Cc1ccc(C(F)(F)F)cc1 [PP0350] ([NMeL]I[Sar][Aze][NPrPhe(4-CF3)][Sar][hPhe(3-Cl-4-CF3)]P[Ac4c][NMeGly(cPent)]D-Morpholide; lactam N-11) | 69.8 |  |  |  | C (A compound having a KD ratio of 0.1 or more and less than 3 is denoted as C) | B (a compound having 3 or more and less than 10 is denoted as B) |  | 
2 | CCO[C@@H]1C[C@H]2C(=O)NC3(CCC3)C(=O)N(C)[C@@H](C3CCCC3)C(=O)N(C)[C@H](C(=O)N3CCOCC3)CC(=O)N(C)[C@@H](CC)C(=O)N[C@@H]([C@@H](C)CC)C(=O)N(C)CC(=O)N(C)[C@H]3CC(C)=CCN(C3=O)[C@@H](Cc3ccc(C(F)(F)F)cc3)C(=O)N(C)CC(=O)N[C@@H](CCc3cc(F)c(C(F)(F)F)c(F)c3)C(=O)N2C1 [PP1041] | 223 |  |  |  | C (A compound having a KD ratio of 0.1 or more and less than 3 is denoted as C) | C (A compound having a KD ratio of 0.1 or more and less than 3 is denoted as C) |  | 
3 | CCO[C@@H]1C[C@H]2C(=O)NC3(CC(C)(C)C3)C(=O)N(C)[C@@H](C3CCCC3)C(=O)N(C)[C@H](C(=O)N3CCCCC3)CC(=O)N(C)[C@H]3CCC/C=C/c4ccc(cc4)C[C@@H](C(=O)N(C)CC(=O)N[C@@H](CCc4ccc(Cl)c(Cl)c4)C(=O)N2C1)N1CC/C=C\C[C@@H](C1=O)N(C)C(=O)CN(C)C(=O)[C@H]([C@@H](C)CC)NC3=O [PP2578] | 17.7 |  |  |  | AA (a compound having 20 or more is denoted as AA) | A (a compound having 10 or more and less than 20 is denoted as A) |  | 
4 | CCCN1C(=O)CN(C)C(=O)[C@@H]2CCN2C(=O)[C@H]([C@@H](C)CC)NC(=O)[C@H](CC(C)C)N(C)C(=O)C[C@@H](C(=O)N2CCOCC2)NC(=O)[C@H](C2CCCC2)N(C)C(=O)C2(CCCC2)NC(=O)[C@@H]2CC(F)(F)CN2C(=O)[C@H](CCc2ccc(C(F)(F)F)c(Cl)c2)NC(=O)CN(C)C(=O)[C@@H]1Cc1ccc(C(F)(F)F)cc1 [PP0339] ([NMeL]I[Aze][Sar][NPrPhe(4-CF3)][Sar][hPhe(3-Cl-4-CF3)][Pro(4,4-F2)][Ac5c][NMeGly(cPent)]D-Morpholide; lactam N-11) | 158 |  |  |  | B (a compound having 3 or more and less than 10 is denoted as B) | B (a compound having 3 or more and less than 10 is denoted as B) |  | 
5 | CCO[C@@H]1C[C@H]2C(=O)NC3(CC(C)(C)C3)C(=O)N(C)[C@@H](C3CCCC3)C(=O)N(C)[C@H](C(=O)N(C)C)CC(=O)N(C)[C@@H](CC(C)C)C(=O)N[C@@H]([C@@H](C)CC)C(=O)N(C)CC(=O)N(C)[C@H]3C/C=C\CCN(C3=O)[C@@H](Cc3ccc(C)c(F)c3)C(=O)N(C)CC(=O)N[C@@H](CCc3ccc(C(F)(F)F)c(OC)c3)C(=O)N2C1 [PP2689] |  | 6.2 |  |  | A (a compound having 10 or more and less than 20 is denoted as A) | B (a compound having 3 or more and less than 10 is denoted as B) |  | 

Continued by falling IC50 [1], values first:

Row | IC50 [1] [nM] | IC50 ([1]; NCI-H441 cells, 4 days, CellTiter-Glo, read-out: NCl-H441 IC50) [nM] | Compound | NRAS /KRAS ([2]; ratio of KD value for GDP-bound NRAS wild-type protein to KD value for KRAS (SPR)) | HRAS /KRAS (HRAS wild-type protein; ratio of KD value for HRAS wild-type protein to KD value for KRAS (SPR)) | NRAS /KRAS [2, 3] | HRAS /KRAS (HRAS wild-type protein; [4]) | NRAS /KRAS [2, 5] | HRAS /KRAS (HRAS wild-type protein; [6])
6 | 33.8 |  | CCO[C@@H]1C[C@H]2C(=O)NC3(CCC3)C(=O)N(C)[C@@H](C3CCCC3)C(=O)N(C)[C@H](C(=O)N3CCOCC3)CC(=O)N(C)[C@@H](CC(C)C)C(=O)N[C@@H]([C@@H](C)CC)C(=O)N(C)CC(=O)N(C)[C@H]3CCCCCN(C3=O)[C@@H](Cc3ccc(C(F)(F)F)cc3)C(=O)N(C)CC(=O)N[C@@H](CCc3cc(F)c(C(F)(F)F)c(F)c3)C(=O)N2C1 [PP0467] |  |  |  |  | B (a compound having 3 or more and less than 10 is denoted as B) | B (a compound having 3 or more and less than 10 is denoted as B)
7 | 4.3 |  | C#CC[C@H]1C(=O)N[C@@H]([C@@H](C)CC)C(=O)N(C)CC(=O)N(C)[C@H]2C/C=C\CCN(C2=O)[C@@H](Cc2ccc(C(F)(F)F)cc2)C(=O)N(C)CC(=O)N[C@@H](CCc2cc(F)c(C(F)(F)F)c(F)c2)C(=O)N2C[C@H](F)C[C@H]2C(=O)NC2(CC(C)(C)C2)C(=O)N(C)[C@@H](C2CCCC2)C(=O)N(C)[C@H](C(=O)N(C)CCC)CC(=O)N1C [PP1692] | AA (a compound having 20 or more is denoted as AA) | A (a compound having 10 or more and less than 20 is denoted as A) |  |  |  | 
8 | 2.9 |  | C=CC[C@H]1C(=O)N[C@@H]([C@@H](C)CC)C(=O)N(C)CC(=O)N(C)[C@H]2CCCCN(C2=O)[C@@H](Cc2ccc(C(F)(F)F)cc2)C(=O)N(C)CC(=O)N[C@@H](CCc2cc(F)c(C(F)(F)F)c(F)c2)C(=O)N2C[C@H](OCC)C[C@H]2C(=O)NC2(CCC2)C(=O)N(C)[C@@H](C2CCCC2)C(=O)N(C)[C@H](C(=O)N(C)C)CC(=O)N1C [PP0695] |  |  |  |  | C (A compound having a KD ratio of 0.1 or more and less than 3 is denoted as C) | C (A compound having a KD ratio of 0.1 or more and less than 3 is denoted as C)
